Earlier results in EP0763114B1, “HEPATITIS G VIRUS AND MOLECULAR CLONING THEREOF” (priority 1994, dated 1995).

System: HCV
Details: individuals infected with HCV, while ribavirin was administered

## NC(=O)c1ncn([C@@H]2O[C@H](CO)[C@@H](O)[C@H]2O)n1 [ribavirin, 1-B-D-ribofuranosyl-1-2,4-triazole, 3-carboxamide]
  serum levels of alanine aminotransferase (ALT): significant reductions
  viral titer: significant reductions
